Earlier results on two compounds are cited in US6379294B1, “Process for preparing esterquats” (Akzo Nobel N.V., priority 1999, dated 2002).

For the series the following is noted: salts of the tertiary amines as such; from Klomp, Kruka, Reijnhart, IBC Conference 1998.

`CCCCCCCCCCN(CCCC)CCCC` [di-n-butyl decyl amine]: the “Inhibition of the growth of gas hydrates” value is on record as “inhibited the growth of gas hydrates”.
On to `CCCCN(CCCC)CCCC` [tri-n-butyl amine], for which the “Inhibition of the growth of gas hydrates” value is reported as “inhibited the growth of gas hydrates”.
